Test results from patent US7226924B2, “Substituted 3,4-dihydro-pyrimido[1,2a]pyrimidines and 3,4-dihydro-pyrazino[1,2a]pyrimidines, and methods for their preparation and use” (priority 2000, dated 2007).

Tests used:
μ-opiate receptor = μ-opiate receptor (Homo sapiens, UniProt P35372); assay: μ-opiate receptor binding; conditions: read-out: Ki Value of the μ-opiate Receptor Bond
Source text: (§1) Compounds according to the invention were investigated with respect to their pharmacological properties using methods described by J. P. Devlin in “High throughput screening—the discovery of bioactive substances,” Marcel Dekker, New York, 1997, pages 275 to 453.

NMDA/MK801-binding site = NMDA/MK801-binding site inhibition; design: dose or concentration left out as unconfirmed
Source text: as §1

Chain of μ-opiate receptor (P35372 whole entry, species assumed): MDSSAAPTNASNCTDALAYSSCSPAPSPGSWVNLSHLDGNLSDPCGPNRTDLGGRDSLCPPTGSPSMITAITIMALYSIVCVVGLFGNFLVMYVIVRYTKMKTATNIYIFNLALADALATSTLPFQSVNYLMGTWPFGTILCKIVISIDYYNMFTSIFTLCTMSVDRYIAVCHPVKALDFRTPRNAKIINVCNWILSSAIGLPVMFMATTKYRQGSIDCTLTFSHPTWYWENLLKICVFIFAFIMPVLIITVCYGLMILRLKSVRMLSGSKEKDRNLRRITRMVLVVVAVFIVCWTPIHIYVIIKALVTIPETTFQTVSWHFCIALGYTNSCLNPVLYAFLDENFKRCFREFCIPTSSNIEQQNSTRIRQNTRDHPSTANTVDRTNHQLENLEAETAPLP

In the case of `NC(=O)C1=NC(Cl)=C(N)N2C1=NC(c1ccccn1)CC2Sc1ccccc1` (centres unmarked) [Example 51, 6-Amino-7-chlor-4-phenylsulphanyl-2-pyridin-2--yl-3,4-dihydro-2H-pyrazino[1,2a]pyrimidin-9--carboxylic acid amide], the Ki (μ-opiate receptor) is reported as 1400 nM and the “% inhibition of NMDA/MK801-binding site” value (NMDA/MK801-binding site) is reported as 40%.
With `N#CC1=NC(c2ccccc2)=CN2C1=NC(c1ccccn1)CC2Sc1ccccc1` (centres unmarked) [Example 52, 7-phenyl-4-phenylsulphanyl-2-pyridin-2-yl-3,4--dihydro-2H-pyrazino[1,2a]pyrimidine-9--carbonitrile] the Ki (μ-opiate receptor) was 1400 nM and the “% inhibition of NMDA/MK801-binding site” value (NMDA/MK801-binding site) was 47%.
With `BrC1=CN2C(=NC(c3ccccn3)CC2Sc2ccccc2)N=C1` (centres unmarked) [Example 53, 7-bromo-4-phenylsulphanyl-2-pyridin-2-yl-3,4--dihydro-2H-pyrimido[1,2a]pyrimidine] the Ki (μ-opiate receptor) was 2500 nM and the “% inhibition of NMDA/MK801-binding site” value (NMDA/MK801-binding site) was 44%.
In the case of `OC1=CC(O)=NC2=NC(c3ccccn3)C3C4C=CC(C4)C3N12` (centres unmarked) [Example 61, 5,8-methano-9-pyridin-2-yl-5,8,84,9-tetrahydro--4bH-1,4a,10-triaza-phenanthrene-2,4-diol], the “% inhibition of NMDA/MK801-binding site” value (NMDA/MK801-binding site) is reported as 40%.
For `BrC1=CN2C(=NC(c3ccccn3)C3CCC=CC32)N=C1` (centres unmarked) [Example 62, 3-bromo-9-pyridin-2-yl-7,8,84,9-tetrahydro--4bH-1,44,10-triaza-phenanthrene], the “% inhibition of NMDA/MK801-binding site” value (NMDA/MK801-binding site) was 40%.
